Laboratory results published in article PMC9550238, “Novel TRKB agonists activate TRKB and downstream ERK and AKT signaling to protect Aβ-GFP SH-SY5Y cells against Aβ toxicity” (Aging (Albany NY), 2022).
Where two headings read alike, the source gives them in different places.

Key:
in vitro = in vitro ADME
Description: The permeability of LMDS-1 and -2 was determined by a PAMPA-BBB assay. Firstly, 300 μl of LMDS-1 or -2 (1 μM) solution were added to the donor well (Millipore). Bupropion (a high permeability marker), piroxicam (a low permeability marker), and lucifer yellow (an integrity marker) (Sigma-Aldrich) were used as quality control (QC) compounds for comparison. The sandwich with aqueous donor on the bottom, artificial lipid membrane (PVDF filter coated with porcine polar brain lipid) in the middle, and aqueous acceptor (5% DMSO in PBS) on the top was assembled as stated. Each compound was tested in triplicate. After incubation for 18 h at the ambient temperature, the PAMPA sandwich plate was separated. The concentrations of test and QC compounds in the donor and acceptor wells were measured as stated, and the effective permeability coefficient (Pe) was computed.

Aβ-GFP SH-SY5Y cells [1] = assay: Neurite outgrowth analysis; assay type: cell-based, Human; settings: 5 μM; induced untreated 3.0, uninduced 3.9
Description: (§1) As stated, Aβ-GFP SH-SY5Y cells were seeded (6 × 10^4/24-well) with retinoic acid addition on day 1, treated with tested compounds (5 μM) plus induced Aβ-GFP expression (5 μg/ml doxycycline) on day 2, and stained with TUBB3 (tubulin beta 3 class III) primary antibody (1:1000; Covance #MMS-435P, Princeton, NJ, USA), goat anti-rabbit Alexa Fluor® 555 secondary antibody (1:1000; Thermo Fisher Scientific #A27039), and DAPI (4′-6-diamidino-2-phenylindole, 0.1 μg/ml; Sigma-Aldrich) on day 8 [60]. Neuronal pictures were taken using the high-content system and analyzed for neurite length (μm), process (number of neurites protruding from neuronal cell body) and branch (number of neurites extending from process) (MetaXpress neurite outgrowth application module; Molecular Devices). In each of three independent experiments, roughly 6000 cells from each sample were examined.

Aβ-GFP SH-SY5Y cells [2] = assay: Aβ folding reporter GFP fluorescence; assay type: cell-based, Human; settings: for intensity of GFP fluorescence: 1.2–5 μM, untreated cells 100%; for EC50: Homo sapiens, 144 h, Aβ-GFP SH-SY5Y cells, compounds 1.2–5 μM, Dox 6 days, read-out: Aβ aggregation inhibition EC50 (GFP fluorescence)
Description: Human neuroblastoma SH-SY5Y-derived Aβ-GFP cells were maintained as stated. The recombinant Aβ-GFP protein has a 12 amino acid-containing linker between the fused Aβ and GFP. Doxycycline (5 μg/ml; Sigma-Aldrich) was used to induce Aβ-GFP expression.
Neuronal differentiation of Aβ-GFP SH-SY5Y cells was induced by retinoic acid (10 μM; Sigma-Aldrich). Cells on 96-well plate (2.5 × 10^4/well) were seeded on day 1, pre-treated with test compounds (1.2–5 μM) plus induced Aβ-GFP expression (5 μg/ml doxycycline) on day 2, and stained with Hoechst 33342 (0.1 μg/ml; Sigma-Aldrich) on day 8 as stated. Cell images were then captured at 482 nm excitation/536 nm emission wavelengths (ImageXpress Micro Confocal high-content system) and analyzed (MetaXpress image acquisition and analysis software) (Molecular Devices, Sunnyvale, CA, USA). In addition, ROS was quantified on day 8 following CellROX Deep Red stain (5 μM; Molecular Probes, Waltham, MA, USA) using the high-content system with excitation/emission wavelengths of 644/665 nm.

[3] = parameters: method as in PMID 32496635; settings: cited from earlier work
Aβ-GFP SH-SY5Y cells [4] = assay: TRKB RNA interference, neurite outgrowth; assay type: cell-based, Human; settings: 5 μM
Description: as §1
To knock down TRKB expression in Aβ-GFP SH-SY5Y cells, lentiviral short hairpin RNA (shRNA) targeting TRKB and control (scrambled) were used. Cells were plated in the presence of retinoic acid (5 × 10^5/6-well for protein analysis or 6 × 10^4/24-well for neurite outgrowth analysis) on day 1, infected with lentivirus on day 2, pretreated with test compound (5 μM) plus inducing Aβ-GFP expression on day 3, and collected for neurite outgrowth or TRKB protein analysis on day 9 as stated.

Aβ42 peptide = biological target: T1, Aβ42 peptide (Homo sapiens, UniProt P05067); assay: Thioflavin T Aβ aggregation inhibition assay; assay type: biochemical; settings: Aβ42, compounds 5–20 μM
T1 construct: assessed by using Aβ42 peptide (AnaSpec, Fremont, CA, USA); purchased AnaSpec
T1 sequence (P05067 672-713 limits assumed): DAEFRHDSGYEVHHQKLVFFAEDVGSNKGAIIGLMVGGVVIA
Description: (§2) Thioflavin T is widely used to visualize and quantify the presence of misfolded amyloid protein aggregates in vitro [59]. […] In addition, DPPH radical (Sigma-Aldrich) was used to assay the free radical scavenging capacity of kaempferol, LM-031 and analogs (10–160 μM) as stated.

[5] = DPPH free radical scavenging assay; assay type: biochemical; settings: compounds 10–160 μM
Description: as §2

Aβ-GFP SH-SY5Y cells [6] = assay: ERK/PI3K kinase inhibitor treatment, immunoblot of TRKB downstream targets; assay type: cell-based, Human
Description: Cells were plated in the presence of retinoic acid (5 × 10^5/6-well) on day 1, treated with tested compounds (5 μM) plus induced Aβ-GFP expression with doxycycline (5μg/ml) on day 2, as stated. Kinase inhibitors U0126 (an inhibitor of ERK) or wortmannin (an inhibitor of PI3K) (LC Laboratories, Woburn, MA, USA) (10 μM) were added on day 6. The cells were collected on day 8 for BDNF, BCL2, BAX, total/phosphorylated TRKB, ERK, AKT, and CREB protein analysis as previously stated.
(§3) Total proteins from Aβ-GFP SH-SY5Y cells were prepared, quantified, electrophoretically separated and blotted as stated. Following blocking, the membrane was probed with antibody against BDNF (1:500; Santa Cruz Biotechnology #sc-546, Santa Cruz, CA, USA), BCL2 (1:200; Santa Cruz Biotechnology #sc-7382), BAX (1:200; Santa Cruz Biotechnology #sc-7480), TRKB (1:500; Cell Signaling Technology #4603, Danvers, MA, USA), p-TRKB (Y516) (1:200; GeneTex #GTX32230, Irvine, CA, USA), p-TRKB (Y816) (1:1000; Millipore #ABN1381, Billerica, MA, USA), ERK (1:1000; Cell Signaling Technology #9102), p-ERK (T202/Y204) (1:1000; Cell Signaling Technology #9101), AKT (1:1000; Abcam #ab126811, Cambridge, CB, UK), p-AKT (S473) (1:1000; Cell Signaling Technology #4060), CREB (1:500; Santa Cruz Biotechnology #sc-186), p-CREB (S133) (1:1000; Millipore #06-519), or loading control GAPDH (glyceraldehyde-3-phosphate dehydrogenase) (1:1000; MDBio #30000002, Taipei, Taiwan). The immune complexes were detected as stated.

Aβ-GFP SH-SY5Y cells [7] = assay: Comparison of BDNF and LMDS compounds on TRKB signaling, immunoblot; assay type: cell-based, Human; settings: 5 μM; for p-CREB: induced untreated 42%; for p-ERK: induced untreated 64%; for p-AKT: induced untreated 65%
Description: as §3

Aβ-GFP SH-SY5Y cells [8] = assay: ERK/PI3K kinase inhibitor treatment, immunoblot of TRKB downstream targets; assay type: cell-based, Human; settings: 5 μM; induced untreated 61–64%
[9] = 5 μM plus U0126 or wortmannin 10 μM
[10] = 5 μM, no kinase inhibitor, induced untreated 70–71%

EC50 (Aβ-GFP SH-SY5Y cells [2]) [µM]	EC50 (Aβ42 peptide) [µM]	EC50 [5] [µM]	Papp at 18 h, 1 μM (in vitro; PAMPA) [×10⁻⁶ cm/s]	PAMPA-BBB classification (in vitro)	Molecule	intensity of GFP fluorescence (Aβ-GFP SH-SY5Y cells [2])	p-ERK level (Aβ-GFP SH-SY5Y cells [6]; 5 μM plus U0126 10 μM)	BAX (Aβ-GFP SH-SY5Y cells [6]; [9])	BCL2 (Aβ-GFP SH-SY5Y cells [6]; [9])	p-CREB (Aβ-GFP SH-SY5Y cells [6]; [9])	pro- and m-BDNF (Aβ-GFP SH-SY5Y cells [6]; [9])	BCL2 (Aβ-GFP SH-SY5Y cells [6]; 5 μM, induced untreated 44%)	p-CREB (Aβ-GFP SH-SY5Y cells [6]; 5 μM, induced untreated 66%)	pro- and m-BDNF (Aβ-GFP SH-SY5Y cells [6]; 5 μM, induced untreated 68–52%)	BAX (Aβ-GFP SH-SY5Y cells [6]; 5 μM, induced untreated 225%)	p-AKT level (Aβ-GFP SH-SY5Y cells [6]; [10])	p-ERK level (Aβ-GFP SH-SY5Y cells [6]; [10]) [%]	p-CREB (Aβ-GFP SH-SY5Y cells [7])	p-ERK (Aβ-GFP SH-SY5Y cells [7])	p-AKT (Aβ-GFP SH-SY5Y cells [7])	other results
					lucifer yellow [reference compound]																% transport (in vitro; PAMPA): 0.00 (% Transport)
5.9	9	104			O=C(c1ccccc1)c1cc2c(O)cccc2oc1=O [LM-031, 3-benzoyl-5-hydroxychromen-2-one]	111–149%															neurite process (Aβ-GFP SH-SY5Y cells [1]): 3.7–3.8; Measured Pe ([3]; PAMPA-BBB): 4.80 ± 0.12 10^−6 cm/s; PAMPA-BBB classification ([3]; from Pe of ref 34): BBB^+ (high); neurite process (Aβ-GFP SH-SY5Y cells [4]; scrambled shRNA, induced untreated 2.6): 3.8; neurite process (Aβ-GFP SH-SY5Y cells [4]; shRNA targeting TRKB): 2.5
			1.65 ± 0.17		CN1C(C(=O)Nc2ccccn2)=C(O)c2ccccc2S1(=O)=O [Piroxicam, piroxicam, reference compound]																
			17.1 ± 1.09		CC(NC(C)(C)C)C(=O)c1cccc(Cl)c1 (stereo not drawn) [Bupropion, bupropion, reference compound]																
6	< 5	117	14.9 ± 3.61	BBB^+ (high)	CCOc1ccc2cc(C(=O)c3ccccc3)c(=O)oc2c1 [LMDS-1]	111–149%	38–43%	152–191%	80–121%	52–84%	65–88%	156–199%	127–142%	100–169%	121–130%	110–111%	115	85–97%	94–111%	115–118%	p-TRKB Y516 and Y817 (Aβ-GFP SH-SY5Y cells [8]): 113–123%
7.5	18	146	3.81 ± 0.13	BBB^+ (moderate)	O=C(c1ccccc1)c1cc2ccc(O)cc2oc1=O [LMDS-2]	111–149%	38–43%	152–191%	80–121%	52–84%	65–88%	156–199%	127–142%	100–169%	121–130%	110–111%	115	85–97%	94–111%	115–118%	p-TRKB Y516 and Y817 (Aβ-GFP SH-SY5Y cells [8]): 113–123%
